4 compounds from US20140121258A1, “COMPOUNDS ACT AT MULTIPLE PROSTAGLANDIN RECEPTORS GIVING A GENERAL ANTI-INFLAMMATORY RESPONSE” (ALLERGAN, INC., priority 2010, published 2014) can be followed below.

The target of assay [1] is T1, human prostanoid TP receptor (Homo sapiens, UniProt P21731).
T1 construct: expressed in transfected cells
T1 sequence (P21731 1-343): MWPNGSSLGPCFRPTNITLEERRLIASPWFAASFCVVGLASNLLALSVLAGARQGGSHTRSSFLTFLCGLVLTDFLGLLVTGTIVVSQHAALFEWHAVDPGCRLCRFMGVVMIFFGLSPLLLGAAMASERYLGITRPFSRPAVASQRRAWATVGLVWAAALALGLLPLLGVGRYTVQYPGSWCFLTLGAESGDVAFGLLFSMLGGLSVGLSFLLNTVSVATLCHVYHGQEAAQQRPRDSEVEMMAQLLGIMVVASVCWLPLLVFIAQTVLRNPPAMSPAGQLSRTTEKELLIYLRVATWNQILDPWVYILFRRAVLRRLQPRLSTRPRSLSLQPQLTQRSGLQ
Nature of the assay: FLIPR Ca2+ signaling antagonist assay, TP receptor stable cell line. Format: cell-based. Particulars: HEK-293 EBNA stable cells, standard agonist U-46619; NA = inactive (no antagonism or Kb≧10,000 nM). Here is the method: The above compounds were tested for PG antagonist activity as follows using human recombinant prostanoid receptor (DP1, EP1-4, FP, IP and TP) stable cell lines:
In order to measure the response of Gs and Gi coupled prostanoid receptors as a Ca^2+ signal, chimeric G protein cDNAs were used. Stable cell lines over-expressing human prostanoid DP1, EP1-4, FP, IP, and TP receptors were established as follows:
Briefly, human prostanoid DP1, EP2, and EP4 receptor cDNAs were co-transfected with chimeric Gqs cDNA containing a haemagglutanin (HA) epitope; human prostanoid EP3 receptors were co-transfected with chimeric Gqi-HA; human EP1, FP, IP, and TP receptor cDNAs were expressed with no exogenous G-proteins. Gqs and Gqi chimeric cDNAs (Molecular Devices, Sunnyvale, Calif., U.S.A.), as well as cDNAs of prostanoid receptors, were cloned into a pCEP4 vector with a hygromycin B selection marker. Transfection into HEK-293 EBNA (Epstein-Barr virus nuclear antigen) cells was achieved by the FuGENE 6 transfection Reagent (Roche Applied Science, Indianapolis, Ind., USA). Stable transfectants were selected according to hygromycin resistance. Because Gqs and Gqi contained an HA epitope, G-protein expression was detected by Western blotting analysis using anti-mouse HA monoclonal antibody and horseradish peroxidase (HRP)-conjugated secondary antibody, while functional expression of prostanoid receptors was detected by FLIPR screening (Matias et al., 2004). These stable cell lines were validated using previously published antagonists at 10 μM against serial dilutions of standard agonists by FLIPR functional assays for Ca^2+ Signaling (as described below).
Ca^2+ signaling studies were performed using a FLIPR TETRA system (Molecular Devices, Sunnyvale, Calif., USA) in the 384-format. This is a high-throughput instrument for cell-based assays to monitor Ca^2+ signaling associated with GPCRs and ion channels. Cells were seeded at a density of 5×10^4 cells/well in BioCoat poly-D-lysine coated, black wall, clear bottom 384-well plates (BD Biosciences, Franklin lakes, NJ, USA) and allowed to attach overnight in an incubator at 37° C. The cells were then washed twice with HBSS-HEPES buffer (Hanks' balanced salt solution without bicarbonate and phenol red, 20 mM HEPES, pH 7.4) using an ELx405 Select CW Microplate Washer (BioTek, Winooski, Vt., USA). After 60 min of dye-loading in the dark using the Ca^2+-sensitive dye Fluo-4AM (Invitrogen, Carlsbad, Calif., USA), at a final concentration of 2×10^−6M, the plates were washed 4 times with HBSS-HEPES buffer to remove excess dye and leaving 50 μl of buffer in each well. The plates were then placed in the FLIPR TETRA instrument and allowed to equilibrate at 37° C. AGN-211377 was added in a 25 μl volume to each well to give final concentrations of 0.1 μM, 0.3 μM, 1 μM, 3 μM, 10 μM, and 30 μM; or 0.067 μM, 0.1 μM, 0.2 μM, 0.3 μM, 0.67 μM, and 1 μM for cells over-expressing TP receptors. After 4.5 minutes, a 7-point serial dilution of the standard agonist for the corresponding receptor, in a 25 μl volume was injected at the final concentrations from 10^−11M to 10^−5M in 10-fold serial dilution increments for cells expressing human recombinant DP1, EP1, EP2, EP3, EP4, FP, and IP receptors. The dose range for the standard agonist for human recombinant TP receptors was from 10^−12M to 10^−6M. HBSS-HEPES buffer was used as the negative control for the standard agonists. Cells were excited with LED (light emitting diode) excitation at 470-495 nm and emission was measured through an emission filter at 515-575 nm. Assay plates were read for 3.5 minutes using the FLIPR^TETRA. The peak increase in fluorescence intensity was recorded for each well. On each plate, negative controls, dose response of positive controls, and co-treatments of antagonist-agonist for each dose were in triplicates. Standard agonists were as follows: DP=BW 245C, EP1-EP4=PGE2, FP=17-phenyl-PGF2α, IP=Cicaprost, and TP=U-46619. […]

The subject of assay [2] is Dutch-belted pigmented rabbits. Nature of the assay: Arachidonate induced uveitis, anterior chamber leukocyte infiltration. Format: in vivo, rabbit. Particulars: topical, concentrations of 0.1, 0.3 and 1%; 0.5% sodium arachidonate challenge; FIG. 12. The method, then:
The rational for this protocol is to use arachidonate to directly produce ocular anterior segment uveitis, as opposed to using lipopolysaccharide (LPS) to indirectly release arachidonic acid.
Conscious male or female Dutch-belted pigmented rabbits weighing 2.5-3 kg were used for all in vivo slit lamp studies. Four animals were employed per test group. The right eye of each animal receiving 35 μl of topically administered test and the contralateral left eye of each animal receiving 35 μl of topically administered vehicle (t=0 minutes), followed 30 minutes later by treatment with 35 μl of 0.5% sodium arachidonate onto the surface of both eyes (t=30 minutes). Both eyes were examined by slit lamp 60 minutes following sodium arachdionate challenge (t=90 minutes) at 16× magnification under both white light and blue light illumination at an approximate angle of 45° through 1 mm and 5 mm slit widths.
Anterior chamber leukocyte infiltration was measured using a numerical scoring system to estimate cell number per field defined by a 5 mm slit width: 0=no cells per field (no response); 1=1-10 cells per field (mild); 2=11-20 cells per field (moderate); 3=[…] cells per field (severe); 4=>50 cells per filed (florid). Results are reported as the mean score value±S.E.M.

Assay [3] is described as follows: Allergic conjunctival itch (itch-scratch episodes). Particulars: FIGS. 10 and 11, both experiments. Format: in vivo. The method, then: The compounds of this invention were tested according to the method described in “Characterization of Receptor Subtypes Involved in Prostanoid-Induced Conjunctival Pruritis and Their Role in Mediating Conjunctival Itching”, Vol. 279, No. 1, (JPET)279, 137-142′ 1996 for their efficacy in alleviating itch.

On to `Cc1cc(CCC(=O)NS(=O)(=O)C(F)(F)F)nn1Cc1cc(Cl)ccc1OCc1ccc(Cl)cc1` [Example 1, N-(3-{1-[5-Chloro-2-(4-Chloro-Benzyloxy)-Benzyl]-5-Methyl-1H-Pyrazol-3-yl}-Propionyl)-C,C,C-Trifluoromethanesulfonamide], for which the Kb in assay [1] stood at 0.012 µM.

Compound `CCC(CC)COc1ccc(Br)cc1Cn1nc(CCC(=O)O)cc1C` [Example 3, 3-{1-[5-Bromo-2-(2-ethyl-butoxy)-benzyl]-5-methyl-1H-pyrazol-3-yl}-propionic acid] yielded a Kb in assay [1] of 0.009 µM. Also, the “effect in model for uveitis (anterior chamber leukocyte infiltration score)” value in assay [2] is reported as “dose dependent response”. Moreover, in assay [3], the “number of itch-scratch episodes” value is reported as “significantly lower number of itch-scratch episodes”.

For `CCC(CC)COc1ccc(Cl)cc1Cn1nc(CCC(=O)O)cc1C` [Example 3a, 3-{1-[5-Chloro-2-(2-ethyl-butoxy)-benzyl]-5-methyl-1H-pyrazol-3-yl}-propionic acid], the antagonist dissociation constant (Kb) in assay [1] was 0.005 µM. Besides, the “effect in model for uveitis (anterior chamber leukocyte infiltration score)” value in assay [2] is “dose dependent response”. In addition, the “number of itch-scratch episodes” value in assay [3] is “significantly lower number of itch-scratch episodes”.

For `Cc1cc(CCC(=O)O)nn1Cc1cc(Br)ccc1OCC1CCCC1` [Example 4, 3-[1-(5-Bromo-2-cyclopentylmethoxybenzyl)-5-methyl-1H-pyrazol-3-yl]-propionic acid], the Kb in assay [1] was 0.03 µM.
